Experimental data published in patent publication US20080014253A1, “Lipid-Based Drug Delivery Systems Containing Unnatural Phospholipase A2 Degradable Lipid Derivatives and the Therapeutic Uses Thereof” (priority 2004, published 2008).

Target: T1, PLA2 (A. piscivorus piscivorus) (Agkistrodon piscivorus piscivorus, UniProt P51972)
T1 sequence (P51972 1-123): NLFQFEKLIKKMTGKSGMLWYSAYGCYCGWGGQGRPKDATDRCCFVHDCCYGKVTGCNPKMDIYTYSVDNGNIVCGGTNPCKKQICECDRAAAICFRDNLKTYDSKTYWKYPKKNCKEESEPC
Test: PLA2 hydrolysis of unilamellar liposomes (lag time, degree of lipid hydrolysis by HPLC)
Format: biochemical
Conditions: for degree of PLA2 lipid hydrolysis: 1000 s after the unset of the burst, HPLC, broad temperature range
Protocol: FIG. 4. Characteristic reaction time profiles at 40° C. for PLA2 hydrolysis of unilamellar. (A) 0.15 mM 1-O-DPPC′ liposomes incubated with 150 nM PLA2 (A. piscivorus piscivorus). (B) 0.15 mM 1-O-DPPG′ liposomes incubated with human secretory PLA2 from 20 μL freshly prepared human tear fluid (B). The PLA2 hydrolysis reaction is monitored by intrinsic fluorescence (solid line) from the enzyme and 90° static light scattering (dashed lines) from the lipid suspension. After adding PLA2 to the equilibrated liposome suspension a characteristic lag time, τ, follows before a sudden increase in the catalytic activity takes place (A).
FIG. 5. PLA2 (A. piscivorus piscivorus) lag time, τ, as a function of temperature for the hydrolysis of 1-O-DPPC′ unilamellar liposomes incorporated with 0 mol % (▪), 2 mol % (▴), and 10 mol % (∘) 1-O-DPPG′ lipids, and 5 mol % (V) DSPE-PEG2000 polymer lipids. The concentration of the liposomes was 0.15 mM and the concentration of PLA2 was 150 nM.
FIG. 6. (A) PLA2 (A. piscivorus piscivorus) hydrolysis of 1-O-DPPC′ liposomes containing 0 mol % (▪), 2 mol % (▴), and 10 mol % (∘) 1-O-DPPG′ lipids, and 5 mol % (▾) DSPE-PEG2000 polymer lipids determined by HPLC [28]. The percent lipid hydrolysis is determined 1000 s after the unset of the burst. The concentration of the liposomes was 0.15 mM and the concentration of PLA2 was 150 nM. (B) Hydrolysis of 1-O-DPPG′ unilamellar liposomes determined by HPLC [28]. The PLA2 catalyzed lipid hydrolysis is determined as a function of time after addition of 20 μL freshly prepared human tear fluid to 0.15 mM 1-O-DPPG′ liposomes.
By replacing the ester linkage in the C-1 position with an ether bond, these unnatural phospholipids can furthermore be used as novel prodrug anticancer lipids to make liposomal microcarriers that can be degraded to active anticancer lysoetherlipids by PLA2 [27]. […] The PLA2 lag time measurements on 1-O-DPPC′ unilamellar liposomes incorporated with small amounts of 1-O-DPPG′ or DSPE-PEG2000 lipids were performed in the gel-to-fluid main phase transition range and the degree of lipid hydrolysis was analyzed using HPLC techniques.
Typical PLA2 (A. piscivorus piscivorus) hydrolysis time course profiles obtained at 40° C. are shown in FIG. 4 for 1-O-DPPC′ and 1-O-DPPG′ unilamellar liposomes. […] The rapid increase in PLA2 activity is reflected by a sharp rise in the intrinsic PLA2 tryptophan fluorescence intensity followed by a concomitant decrease in the 90° static light scattering caused by a change in the morphology of the lipid system when a large amount of the phospholipids are converted to non-bilayer forming lysolipids and free fatty acids. […] Both the fluorescence and light scattering data clearly indicate that the unnatural phospholipids are excellent substrates for PLA2 catalyzed hydrolysis. […]

Row | Molecule | PLA2 lag time, τ (0.15 mM unilamellar liposomes, 150 nM PLA2, 40° C.) | PLA2 lag time (1-O-DPPC′ liposomes incorporated with 5 mol % DPPE-PEG2000 lipopolymers) | degree of PLA2 lipid hydrolysis
1 | CCCCCCCCCCCCCCCCOC[C@@H](COC(=O)CCCCCCCCCCCCCCC)OP(=O)([O-])OCC[N+](C)(C)C [1-O-DPPC′, (S)-1-O-hexadecyl-3-hexadecanoyl-glycero-2-phosphocholine] | observed | very short lag time | remarkably high degree of lipid hydrolysis
2 | (S)-1-O-hexadecyl-3-hexadecanoyl-glycero-2-phosphoglycerol [1-O-DPPG′] | – | – | remarkably high degree of lipid hydrolysis
